Results as given in paper PMC12067093, “Discovery and optimisation of a covalent ligand for TRIM25 and its application to targeted protein ubiquitination” (Chemical Science, 2025).

How the values were obtained:
[1] = molecular target: T1, TRIM25 (full-length, His10-TRIM25) (Homo sapiens, UniProt Q14258); test: In vitro TRIM25 auto-ubiquitination time course assay; format: biochemical; details: TRIM25 4 μM pre-treated with compound 50 μM for 16 h at 4 °C, versus DMSO; assay 60 min at 30 °C
T1 construct: Full-length recombinant TRIM25 was pre-treated with either DMSO, 10 or 11; made in house; host or cells: Sf9 insect cells
Experimental: 1 Glutathione reactivity assay
2 Glutathione consumption assay was outsourced to Cyprotex, where the experimental
3 procedure was optimised and performed. 10 mM DMSO stocks of fragments 1 and 2,
5 diluted with 5 mM glutathione in PBS. The reaction was shaken before incubation at
6 40 °C. The reaction mixture was analysed via UPLC-UV-MS up to eight times across
7 24 hours, compared to known reference compounds and samples of each compound
8 in distilled water. UPLC conditions: flow rate 800 µL/min on an Acquity UPLC BEH
9 C18 1.7 µm 2.1 x 50 mm column, with column temperature 37°C, monitored at 210 to
10 350 nm. Samples were run using a 2 min gradient elution from 97% mobile phase A
11 to 0% mobile phase A, where mobile phase A was 0.1% formic acid in H2O, and mobile
12 phase B was 0.1% formic acid in 100% MeCN. MS conditions: single quad, ESI+, with
13 scan range of 50 – 1000 Da. […]
15 (k) for each compound was determined from the slope of a linear regression fit for a […]
17 differential for the eight time points. t1/2 values were calculated as follows: t1/2 = 0.693/k. […]
2 indicates the sample taken prior to the addition of ATP. Samples were analysed by […]
16 added directly to the ubiquitination assay reaction mixture. Samples were analysed as […]
18 which was detected by anti-rabbit-HRP secondary antibody (Dako, P0399, 1:2000). […]
21 analysed in ImageLab (Bio-Rad). […]

live THP-1 cells = test: IA-DTB competitive chemoproteomics in live THP-1 cells, proteome-wide off-targets; format: cell-based, 9606; details: compound 50 μM, 4 h at 37 °C

T1 sequence (Q14258 whole entry): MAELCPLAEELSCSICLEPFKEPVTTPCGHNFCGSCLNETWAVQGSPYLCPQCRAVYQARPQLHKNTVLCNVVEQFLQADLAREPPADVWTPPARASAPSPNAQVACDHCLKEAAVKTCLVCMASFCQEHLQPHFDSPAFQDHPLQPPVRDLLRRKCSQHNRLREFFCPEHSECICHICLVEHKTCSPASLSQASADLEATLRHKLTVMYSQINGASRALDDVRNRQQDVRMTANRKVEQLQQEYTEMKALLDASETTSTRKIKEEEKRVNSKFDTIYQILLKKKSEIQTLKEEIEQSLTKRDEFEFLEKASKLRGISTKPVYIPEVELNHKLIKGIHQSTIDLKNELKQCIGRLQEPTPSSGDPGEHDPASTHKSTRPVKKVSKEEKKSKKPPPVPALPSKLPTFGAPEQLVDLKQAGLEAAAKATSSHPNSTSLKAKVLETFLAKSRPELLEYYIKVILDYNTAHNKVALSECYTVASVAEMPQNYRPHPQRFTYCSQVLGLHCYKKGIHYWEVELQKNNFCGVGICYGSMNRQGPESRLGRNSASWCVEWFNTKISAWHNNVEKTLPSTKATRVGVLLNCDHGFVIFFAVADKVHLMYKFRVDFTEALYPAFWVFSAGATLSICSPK

Row | Compound | rate of TRIM25 auto-ubiquitination [1] | number of other protein targets competed (live THP-1 cells)
1 | Cc1cc(C(=O)N2CCCN(C(=O)CCl)CC2)ccc1-c1ccccc1 [Compound 10] | significantly increased | 50
2 | CC1Cc2ccccc2N1C(=O)C1CCCN(C(=O)CCl)C1 (stereo not drawn) [Compound 11] | significantly increased | 
